# From patent US20100212036A1, “SELECTIVE INHIBITION OF HISTONE DEACETYLASES 1 AND 2 AS A TREATMENT FOR CARDIAC HYPERTROPHY” (priority 2008, published 2010)
# Legend:
# cardiomyocytes = details: treatment of cardiomyocytes with HDAC inhibitors; cited from earlier work
# PPARα-responsive genes = assay: Real-time RT-PCR of PPARα target genes in hearts of wild-type and HDAC3cKO mice after Wy14,643; type: in vivo; details: 50 mg/kg single intraperitoneal injection
# Experimental: FIGS. 5A-E. Aberrant expression of cardiac metabolism genes from cardiac deletion of HDAC3. (FIG. 5A) Microarray analysis was performed at 5 weeks and gene ontology analysis was performed with PANTHER. […] (FIG. 5B) PPAR-regulated mitochondrial uncoupling genes are increased in HDAC3cKO mice. […] (FIG. 5E) Glucose metabolism is decreased in HDAC3cKO hearts. For (FIGS. 5B-E), real-time RT-PCR was performed from LV RNA of 6-week-old wild-type and HDAC3cKO mice in absence or presence of Wy14,643. Transcript levels were normalized to 18S Ribosomal RNA. KO, HDAC3cKO. Error bars represent standard deviation.
# RT-PCR and microarray. For all gene expression analyses from wild-type and HDAC3cKO mice, 4 wild-type and 4 HDAC3cKO hearts were isolated and analyzed. Total RNA was purified using TRIzol reagent according to manufacturer's instructions. For RT-PCR, total RNA was used for reverse transcriptase using random hexamer primers. Primer sequences are available upon request. Quantitative real time PCR was performed using Taqman probes purchased from ABI. For microarray, RNA was extracted from either 3 wild-type or HDAC3cKO hearts and subsequently pooled prior to analysis. Microarray analysis was performed using the Mouse Genome 430 2.0 Array (Affymetrix). All heart RNA was from ventricle tissue only. Microarray analysis was performed by the UT Southwestern Microarray Core Facility using the Mouse Genome 430 2.0 Array (Affymetrix) as described (Davis et al., 2006)
# Animal studies. For fasting studies, male HDAC3cKO and wild-type littermates were fasted for 24 hrs. After 24 hrs, mice were sacrificed, hearts extracted, and prepared for Oil Red O staining. Control mice were allowed standard chow ad libitum. Wy14,643 (Biomol) (50 mg/kg body weight) in 50% DMSO/saline was administered as a single intraperitoneal injection. Control littermates were administered vehicle and hearts were extracted 8 hrs after injection. All animal studies were approved by the IACUC of the University of Texas Southwestern Medical Center.
# HDAC3 = HDAC3 expression in settings of hypertrophy and failure; type: in vivo; details: following infusion; data not shown
# [1] = hearts 8 hrs after injection, vs baseline
# [2] = HDAC3cKO mice, LV RNA, hearts extracted 8 hrs after injection, vs baseline
molecule,measurement,setting,value
CC(/C=C/C(=O)NO)=C\[C@@H](C)C(=O)c1ccc(N(C)C)cc1 [TSA],activation of the fetal gene program,cardiomyocytes,dose-dependentle block activation
same,hypertrophic response,cardiomyocytes,block the hypertrophic response
CCCC(CCC)C(=O)O [VPA],activation of the fetal gene program,cardiomyocytes,dose-dependentle block activation
same,hypertrophic response,cardiomyocytes,block the hypertrophic response
"Cc1cccc(Nc2cc(Cl)nc(SCC(=O)O)n2)c1C [Wy14,643]",CD36 transcript level,PPARα-responsive genes; [1],up-regulated
same,FACS (Acsl1) transcript level,PPARα-responsive genes; [1],up-regulated
same,FATP (Slc27a1) transcript level,PPARα-responsive genes; [1],up-regulated
same,ACOX (acyl-CoA oxidase 1) expression,PPARα-responsive genes; HDAC3cKO hearts,further up-regulated
same,GLUT4 expression,PPARα-responsive genes; HDAC3cKO mice,further decreased
same,PDK4 expression,PPARα-responsive genes; HDAC3cKO mice,further elevated
same,UCP2 transcript level,PPARα-responsive genes; [2],induction was increased
same,UCP3 transcript level,PPARα-responsive genes; [2],induction was increased
same,mCPT-1 transcript levels,PPARα-responsive genes; wild-type or HDAC3cKO hearts,had no effect
CC(C)NCC(O)c1ccc(O)c(O)c1 (stereo not drawn) [isoproterenol],HDAC3 expression levels,HDAC3,decreased
angiotensin,HDAC3 expression levels,HDAC3,not significantly altered
